Measurements taken from paper PMC7211193, “Evaluation of absorption, distribution, metabolism, and excretion of [^14C]-rucaparib, a poly(ADP-ribose) polymerase inhibitor, in patients with advanced solid tumors” (Investigational New Drugs, 2019).

Legend:
Assay type in all cases: in vivo, human
[1] = Plasma pharmacokinetics of unchanged rucaparib (LC-MS/MS) after a single oral dose of [14C]-rucaparib 600 mg
Description: (§1) Six patients received a single oral dose of [^14C]-rucaparib 600 mg (approximately 5.18 MBq or 140 μCi) on day 1 after fasting for 10 h and were confined at the study site for the collection of blood samples and excreta for a maximum of 12 days.
Blood samples were collected in K2 ethylenediaminetetraacetic acid (K2-EDTA) tubes at the following time points: 0 (predose), 1, 2, 3, 4, 8, 12, 24, 48, 72, 96, 120, and 144 h after administration. Blood samples were taken via an indwelling intravenous catheter or by direct vein puncture into appropriate tubes. Aliquots of blood samples were centrifuged at 1600–2000×g for 10 min at 4 °C, and supernatants were collected for plasma samples. All plasma and blood samples were stored at −70 °C until analysis. Plasma and blood samples were evaluated for total radioactivity (TRA) by liquid scintillation (LSC), parent drug concentrations by liquid chromatography (LC) with tandem mass spectrometry (MS/MS) analyses, and metabolite profiling by LC coupled to diode array ultraviolet (UV) detection and MS or radioactivity detection.
Plasma concentrations of rucaparib were determined by Q^2 Solutions (Ithaca, NY, USA) using a validated LC-MS/MS method as previously described. The concentration range for quantitation was 5–10,000 ng/mL.
Blood and plasma TRA data and the plasma concentration of rucaparib were used to determine the Cmax, tmax, AUC from time zero to time of last measurable concentration (AUC0-t), and AUC from time zero to infinity (AUC0-inf), apparent volume of distribution (Vd/F), apparent clearance (CL/F), and terminal half-life (t1/2). Phoenix WinNonlin software version 6.3 or higher (Certara, Princeton, NJ, USA) was used to run a noncompartmental method analysis on the PK data.

[2] = Mass balance: recovery of radioactivity in urine and feces
Description: as §1
For the purposes of the mass balance study and metabolite profiling, urine and fecal samples were collected during predetermined intervals. Urine was collected at time 0 (predose), 0–6, 6–12, and 12–24 h, and daily per 24-h interval from day 2 to day 12. Urine was collected in 3-L polyethylene containers and stored at 4 °C for the duration of the collection period. After each collection period, urine samples were mixed thoroughly, weighed, portioned into aliquots in polypropylene tubes, and then frozen at or below −70 °C until metabolite profiling and TRA analyses by LSC. Feces were collected daily in 24-h intervals from predose to day 12. Feces collections were kept at or below −20 °C. Sample pretreatment involved diluting and homogenizing the feces by adding water (1–2 weight equivalents). An Ultra-Turrax mixer (IKA, Staufen im Breisgau, Germany) was used to homogenize the samples before aliquoting. Separate aliquots of fecal homogenate were transferred to polypropylene tubes. Aliquots for radioactivity measurement by LSC were stored at or below −20 °C until analysis, whereas aliquots for metabolite profiling were stored at −70 °C until analysis.
Patients 01, 05, and 09 were confined to the study site for sample collections for 12 days, but Patients 03, 06, and 08 were discharged earlier per protocol because cumulative recovery of radioactivity from these patients exceeded 90% of the administered dose or the radioactivity in urine and feces was <1% of the administered dose over a 24-h period on 2 consecutive days.
TRA analysis was performed on a Liquid Scintillation Counter Tri-Carb Model 3100TR (PerkinElmer). Aliquots of blood (300 μL), plasma (250 μL), and urine (1 mL) were transferred to scintillation vials. Blood samples were incubated at ≥60 °C with SOLVABLE (1 mL). After cooling to room temperature, EDTA (0.1 M, 100 μL) and hydrogen peroxide (225 μL) were added to dissolve blood cells, reduce foaming, and decrease color intensity. Finally, after incubation at ≥45 °C and ≥60 °C, Ultima Gold (≥5-fold) was added, and the samples were analyzed with LSC. For urine samples, Ultima Gold (≥5-fold) was added, and the samples were analyzed with LSC.
Fecal samples were processed further and combusted before LSC analyses. Aliquots (≈500 mg) of the fecal homogenates were dried in an oven (50 °C). Combustaid (100 μL) was added to the dry homogenates and the sample was combusted in a Sample Oxidizer Model 307 (PerkinElmer). Carbo-Sorb E (7 mL) was used as an absorber agent for the [^14C]-carbon dioxide that was generated during combustion. At the end of the combustion cycle, the absorber was mixed with 13 mL of the scintillant PermaFluor E. After combustion, TRA of fecal aliquots was determined by LSC as described for urine samples.
For the vomit sample collected from Patient 01 (clear vomitus) the urine method was used, and for Patient 05 (not clear vomitus) the feces method was used.

[3] = Safety assessment (CTCAE v4.03 adverse events)
Description: The safety of rucaparib was evaluated during the study. The National Cancer Institute Common Terminology Criteria for Adverse Events (CTCAE) grading system (version 4.03) was used to describe the severity of the adverse events (AEs) that occurred. Clinical laboratory, vital sign, 12-lead ECG, and physical examinations were also part of the safety assessment.

[4] = unchanged rucaparib by LC-MS/MS, single oral 600 mg, N = 6, mean ± SD
[5] = within 12 days post dose, mean ± SD, N = 6

CNCc1ccc(-c2[nH]c3cc(F)cc4c3c2CCNC4=O)cc1 [Rucaparib, rucaparib]
AUC0-24h ratio of unlabeled rucaparib to TRA in plasma ([1]; LC-MS/MS versus LSC): 0.412
AUC(0-inf) ([1]; human, plasma, unchanged rucaparib by LC-MS/MS, single oral 600 mg, N = 6, mean ± SD, read-out: AUC0-inf, rucaparib concentration in plasma): 9340 ± 3480 ng·h/mL
AUC(0-t) ([1]; human, plasma, unchanged rucaparib by LC-MS/MS, single oral 600 mg, N = 6, mean ± SD, read-out: AUC0-t, rucaparib concentration in plasma): 8950 ± 3230 ng·h/mL
Cmax ([1]; human, plasma, unchanged rucaparib by LC-MS/MS, single oral 600 mg, N = 6, mean ± SD, read-out: Cmax, rucaparib concentration in plasma): 428 ± 154 ng/mL
Vd/F ([1]; human, plasma, unchanged rucaparib by LC-MS/MS, single oral 600 mg, N = 6, mean ± SD, read-out: Vd/F, rucaparib concentration in plasma): 2300 ± 490 L
AUC0-24h/AUC0-inf ratio, plasma unchanged rucaparib ([1]; in vivo): 0.537
Mean CL/F of rucaparib relative to that of TRA ([1]; plasma): approximately 3.8 fold
Mean Vd/F of rucaparib relative to that of TRA ([1]; plasma): ~2.8 fold
CL/F, rucaparib concentration in plasma [1, 4]: 73.9 ± 45.5 L/h
t1/2, rucaparib concentration in plasma [1, 4]: 25.9 ± 10.1 h
t1/2, rucaparib concentration in plasma ([1]; unchanged rucaparib by LC-MS/MS, single oral 600 mg, N = 6, mean ± SD, listed as rucaparib): > 25 h
tmax, rucaparib concentration in plasma ([1]; unchanged rucaparib by LC-MS/MS, single oral 600 mg, N = 6, median (range)): 4 (0.933–8.00) h
Cumulative recovery of the actual dose, Patient 01 ([2]; Patient 01, dose corrected for loss by vomiting): 86.5%
Dose recovery in feces, patient who lost 0.03% of dose by vomiting ([2]; Patient 05): 62.2%
Dose recovery in urine, patient who lost 0.03% of dose by vomiting ([2]; Patient 05): 10.9%
Cumulative dose recovery, patient who lost 0.03% of dose by vomiting (lowest recovery) ([2]; Patient 05, urine plus feces): 73.1%
bioavailability ([2]; human, urine and feces, po, 600 mg, radioactivity in urine plus radioactivity recovered as metabolites in feces, read-out: Oral bioavailability suggested by the current study): ≥ 21%
Time by which 90% of the observed urinary recovery was achieved ([2]; post dose): ≤ 120 h
Time within which 90% of the observed fecal recovery was found ([2]; post dose): ≤ 168 h
Recovery of administered radioactive dose in feces [2, 5]: 71.9%
Recovery of administered radioactive dose in urine [2, 5]: 17.4%
Total recovery of administered radioactive dose in excreta [2, 5]: 89.3%
Total treatment-emergent AEs (TEAEs) ([3]; events, in four of six patients, single oral 600 mg): five
Relation, severity and seriousness of TEAEs ([3]; investigator assessment): No TEAE was considered to be related to the study drug by the investigators, had a severity of more than CTCAE grade 2, led to a withdrawal of the patient, or was a serious AE
Patients with TEAE vomiting ([3]; two events in two of six patients): 33.3%
